Test results taken from patent US20070049593A1 (priority 2004, published 2007).
Counter-ions that a name gives are not always drawn.

The molecules below were run against T1, HCV polymerase (Hepatitis C virus genotype 1b, UniProt P26663) (assay: biochemical). Settings: not given.
T1 construct: a region encoding NS5B (J Virol 1991 March, 65(3), 1105-13, 544 amino acids after deletion of 47 amino acids on the C-terminal); 6xHis (C); made in house; host or cells: Escherichia coli
T1 sequence (P26663 2420-2963): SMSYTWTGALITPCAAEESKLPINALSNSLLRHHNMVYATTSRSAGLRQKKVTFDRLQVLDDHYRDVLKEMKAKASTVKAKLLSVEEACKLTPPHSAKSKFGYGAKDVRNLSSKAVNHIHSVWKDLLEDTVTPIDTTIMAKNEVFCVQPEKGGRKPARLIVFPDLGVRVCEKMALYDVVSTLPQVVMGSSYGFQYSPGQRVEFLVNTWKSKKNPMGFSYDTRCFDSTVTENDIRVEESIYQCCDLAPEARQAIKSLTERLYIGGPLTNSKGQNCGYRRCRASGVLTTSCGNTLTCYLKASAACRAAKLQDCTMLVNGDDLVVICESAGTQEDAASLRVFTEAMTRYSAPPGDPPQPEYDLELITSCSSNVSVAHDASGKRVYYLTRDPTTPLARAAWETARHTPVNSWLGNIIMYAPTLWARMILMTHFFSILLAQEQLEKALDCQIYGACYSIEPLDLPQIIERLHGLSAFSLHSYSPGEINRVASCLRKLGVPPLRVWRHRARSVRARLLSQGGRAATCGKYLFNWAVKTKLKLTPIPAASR
Set-up: species or system HCV BK strain
How it was run: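 Recombinant HCV BK-strain NS5B (C-terminal 47 aa deleted, His6-tagged, E. coli), 0.5 μg/ml, run with 5 μg/ml in vitro-transcribed RNA template (polyU/3′X), ATP/GTP/CTP 50 μM, UTP 2 μM plus [3H]UTP, pH 7.5, 25° C, 90 min. TCA-precipitated RNA counted by scintillation; IC50 from activity with vs without compound.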
`O=C(O)c1ccc2c(C3CCCCC3)c3n(c2c1)CCN(CCC1CCCN(C2CCCC2)C1)c1cc(Cl)ccc1-3` (centres unmarked) [Example 1-264, 3-chloro-13-cyclohexyl-5-[2-(1-cyclopentylpiperidin-3-yl)ethyl]-6,7-dihydro-5H-benzo[5,6][1,4]diazepino[7,1-a]indole-10-carboxylic acid dihydrochloride] showed an IC50 of less than 100 nM. Work on `Cc1nc(COc2ccc3c(c2)N(CCN2CCCCC2)CCn2c-3c(C3CCCCC3)c3ccc(C(=O)O)cc32)cs1` [Example 1-401, 13-cyclohexyl-3-(2-methylthiazol-4-ylmethoxy)-5-[2-(piperidin-1-yl)ethyl]-6,7-dihydro-5H-benzo[5,6][1,4]diazepino[7,1-a]indole-10-carboxylic acid dihydrochloride] yielded an IC50 of less than 100 nM. `COCCN1CCn2c(c(C3CCCCC3)c3ccc(C(=O)NC4(C(=O)Nc5ccc(/C=C/C(=O)O)cc5)CCC4)cc32)-c2ccc(OC)cc21` [Example 1-481, (E)-3-{4-[(1-{[13-cyclohexyl-3-methoxy-5-(2-methoxyethyl)-6,7-dihydro-5H-benzo[5,6][1,4]diazepino[7,1-a]indole-10-carbonyl]amino}cyclobutanecarbonyl)amino]phenyl}acrylic acid] gave an IC50 of less than 100 nM. `O=C(O)c1ccc2c(C3CCCCC3)c3n(c2c1)CCOc1cc(OCc2ccccc2)ccc1-3` [Example 2-3, 3-benzyloxy-12-cyclohexyl-6,7-dihydro-5-oxa-7a-azadibenzo[a,e]azulene-9-carboxylic acid] was tested, and the IC50 was less than 100 nM. In the case of `COc1ccc2c(c1)OCCn1c-2c(C2CCCCC2)c2ccc(C(=O)N[C@@H](Cc3ccc(O)cc3)c3nccs3)cc21` [Example 2-381, N—(S)-[2-(4-hydroxyphenyl)-1-(thiazol-2-yl)ethyl]-12-cyclohexyl-3-methoxy-6,7-dihydro-5-oxa-7a-azadibenzo[a,e]azulene-9-carboxamide], the IC50 is reported as less than 100 nM. With `CN(C)C(=O)N1CCN(CCN2CCn3c(c(C4CCCCC4)c4ccc(C(=O)O)cc43)-c3ccccc32)CC1` [Example 1-87, 13-cyclohexyl-5-[2-(4-dimethylcarbamoylpiperazin-1-yl)ethyl]-6,7-dihydro-5H-benzo[5,6][1,4]diazepino[7,1-a]indole-10-carboxylic acid dihydrochloride] the IC50 was less than 100 nM. `CCC1CCCN(C(=O)CN2CCn3c(c(C4CCCCC4)c4ccc(C(=O)O)cc43)-c3ccccc32)C1` (centres unmarked) [Example 1-188, 13-cyclohexyl-5-[2-(3-ethylpiperidin-1-yl)-2-oxoethyl]-6,7-dihydro-5H-benzo[5,6][1,4]diazepino[7,1-a]indole-10-carboxylic acid monohydrochloride] was tested, and the IC50 was less than 100 nM. Work on `CN(C)Cc1ccccc1-c1cccc2c1OCCn1c-2c(C2CCCCC2)c2ccc(C(=O)O)cc21` [Example 2-343, 12-cyclohexyl-4-(2-dimethylaminomethylphenyl)-6,7-dihydro-5-oxa-7a-azadibenzo[a,e]azulene-9-carboxylic acid] yielded an IC50 of less than 100 nM. Molecule `CC(C)(NC(=O)c1ccc2c(C3CCCCC3)c3n(c2c1)CCOc1ccccc1-3)C(=O)N[C@H]1CC[C@H](O)CC1` [Example 2-177, N-[1-(trans-4-hydroxycyclohexylcarbamoyl)-1-methylethyl]-12-cyclohexyl-6,7-dihydro-5-oxa-7a-azadibenzo[a,e]azulene-9-carboxamide] has an IC50 of less than 100 nM.

Same assay, conditions: read-out: HCV polymerase inhibitory activity IC50; 25° C., 90 min; [5,6-3H]UTP incorporation into RNA
Molecule `O=C(NC(Cc1c[nH]c2ccc(O)cc12)C(=O)O)c1ccc2c(C3CCCCC3)c3n(c2c1)CCOc1ccccc1-3` (centres unmarked) [Example 2-253] has an IC50 of less than 100 nM. With `CCN1CCC(CN2CCn3c(c(C4CCCCC4)c4ccc(C(=O)O)cc43)-c3ccccc32)CC1` [Example 1-133, 13-cyclohexyl-5-(1-ethylpiperidin-4-ylmethyl)-6,7-dihydro-5H-benzo[5,6][1,4]diazepino[7,1-a]indole-10-carboxylic acid dihydrochloride] the IC50 was less than 100 nM.
